Assay results taken from patent US11497776B2, “Combination therapy for a stable and long term engraftment” (Yeda Research and Development Co. Ltd., priority 2011, dated 2022).
Where two headings read alike, the source gives them in different places.

Legend:
[1] = tested on: allogeneic recipients (C3H/Hen) transplanted with Balb/c-Nude BM cells
Experimental: (§1) Low (5×10^6) and high dose (25×10^6) Balb/c-Nude BM cells (providing a source of BM depleted of T cells) were transplanted into allogeneic recipients (C3H/Hen) on day 0 following in-vivo T cell debulking (TCD) with anti-CD4 (clone GK1.5) and anti-CD8 (clone 53.6.72) antibodies (300 μg each; Bio X Cell, NH, USA) delivered on day −6, and exposure to 2.0 Gy total body irradiation (TBI) on day −1. High dose Cyclophosphamide (CY, 100 mg/kg, Baxter Oncology, Germany) was administered on days +3 and +4 post transplant and donor type chimerism was evaluated 35 and 95 days post transplant using fluorescein anti-host and donor H-2 antibodies (e.g. FlTC labeled anti-H-2D^d antibody specific for donor type cells and PE labeled anti-H-2K^k antibody specific for host type cells).
Recipient mice (C3H/Hen) were treated with a conditioning protocol prior to transplantation of a T cell depleted bone marrow transplant. Specifically, mice were in-vivo treated with T cell debulking (TCD) using anti-CD4 and anti-CD8 antibodies delivered on day −6 and by exposure to 2.0 Gy total body irradiation (TBI) on day −1. Next, low (5×10^6) or high dose (25×10^6) Balb/c-Nude BM cells (providing a source of BM depleted of T cells, as Nude mice have miniscule numbers of mature T cells) were transplanted into allogeneic recipients (C3H/Hen) on day 0. High dose cyclophosphamide (CY, 100 mg/kg) was administered on days +3 and +4 post transplant. Evaluation of bone marrow cell engraftment was evaluated by donor type chimerism at 35 and 95 days post transplant.
as §1, with “High” for “Low (5×10^6) and high”, “different doses of irradiation ranging from 1 to 3.5” for “2.0”, “TBI” for “total body irradiation (TBI)”, “30” for “35 and 95”
High dose Cyclophosphamide (CY) was administered on days +3 and +4 post transplant and donor type chimerism was evaluated at 30 days post transplant.
as §1, with “High dose” for “Low (5×10^6) and high dose”, “−1. Different doses of” for “−1. High dose”, “mg/kg, 125 mg/kg or 150 mg/kg,” for “mg/kg,”, “Germany) were” for “Germany) was”, “evaluated 30” for “evaluated 35 and 95”

[2] = tested on: C3H/Hen recipients of T cell depleted BM and high dose CY
Experimental: Donor (Balb/c) and 3rd party (C57BL/6) skin grafts were transplanted to the mixed chimeric recipients as described above [i.e. to those mice which were previously transplanted with mega dose (25×10^6) T cell depleted BM and were treated with high dose CY] and to the recipient mice that were inoculated with a regular (5×10^6) T cell depleted BM cell dose and were treated with high dose CY.
Tolerance induction was measured by transplantation of donor (Balb/c) and 3rd party (C57BL/6) skin grafts to the mixed chimeric recipients that were transplanted with mega dose (25×10^6) T cell depleted BM and were treated with high dose CY (as described above), in comparison to the recipients that were inoculated with a regular (5×10^6) T cell depleted BM cell dose (as described above).

[3] = 1.0 Gy TBI, 25×10^6 BM, CY 100 mg/kg days +3 and +4, 30 days post transplant
[4] = 2 Gy TBI, 25×10^6 BM, CY 100 mg/kg days +3 and +4, 30 days post transplant
[5] = 2.5, 3 or 3.5 Gy TBI, 25×10^6 BM, CY 100 mg/kg days +3 and +4, 30 days post transplant

SMILES: O.O=P1(N(CCCl)CCCl)NCCCO1 (stereo not drawn) [CY, 2-[bis(2-chloroethyl)amino]tetrahydro-2H-1,3,2-oxazaphosphorine 2-oxide monohydrate]
- effect of increasing CY dose on chimerism ([1]; 125 mg/kg or 150 mg/kg versus 100 mg/kg, 25×10^6 BM, 2 Gy TBI, 30 days post transplant): did not provide a significant enhancement of chimerism
- donor type chimerism range [1, 3]: 14.5-58%
- percentage of chimeric mice [1, 3]: 83%
- donor type chimerism range [1, 4]: 56-85%
- percentage of mice exhibiting donor type chimerism [1, 4]: 87%
- chimeric recipient mice [1, 5]: 6/6
- donor type chimerism range [1, 5]: 58-83%
- mixed chimerism at long term follow-up ([1]; 5×10^6 T cell depleted BM + CY, 180 and 225 days post transplant): did not exhibit mixed chimerism
- effect of CD8+ cell depletion of the BM preparation on level of chimerism ([1]; 25×10^6 CD8 depleted vs non-depleted Balb/c-Nude BM, CY 100 mg/kg days +3 and +4, 2.0 Gy TBI, 30 days post transplant): did not have any adverse impact
- chimerism at long term follow-up ([1]; 25×10^6 T cell depleted BM + high dose CY, 180 and 225 days post transplant): stable and durable
- mice in which durable mix chimerism was achieved ([1]; 25×10^6 T cell depleted BM, CY 100 mg/kg days +3 and +4, TCD day −6, 2.0 Gy TBI day −1, day 35 and day 95): 4 out of 7
- average donor type chimerism ([1]; CY 100 mg/kg days +3 and +4, 25×10^6 BM, 2 Gy TBI, 30 days post transplant): 57.5±25.8
- average donor type chimerism ([1]; CY 125 mg/kg days +3 and +4, 25×10^6 BM, 2 Gy TBI, 30 days post transplant): 66.5±20.6
- average donor type chimerism ([1]; CY 150 mg/kg days +3 and +4, 25×10^6 BM, 2 Gy TBI, 30 days post transplant): 67.4±27.4
- mice expressing donor type chimerism ([1]; control mice: TCD, 2 Gy TBI and optionally CY, no BM, day 35 and day 95): none
- mice expressing donor type chimerism ([1]; regular dose 5×10^6 T cell depleted BM, in the presence or absence of cyclophosphamide, TCD, 2 Gy TBI, day 35 and day 95): none
- skin graft outcome ([2]; 5×10^6 T cell depleted BM cells and CY): rejected both the donor and 3rd party skin grafts
- chimeric mice that accepted the donor graft and rejected the 3rd party skin grafts ([2]; 25×10^6 T cell depleted BM + high dose CY days +3 and +4): three out of 4
